Where two headings read alike, the source gives them in different places.
Experiments:
U1 cells = experiment: Cell viability of TNFα-induced U1 cells; format: cell-based; settings: for cellular toxicity: high test dose of 100 µM; for toxicity: higher dose testing (300 µM)
Experimental: Thiolester compounds were also tested for their ability to inhibit HIV-1 replication in TNFα-induced U1 and ACH-2 cells. U1 cells were induced with 5 ng/ml of TNFα in the presence of various concentrations of the thiolesters 44, 45 or 47. Forty-eight hours later the cultures were characterized for virus p24 antigen production and cell viability. […] Compound 44 killed 60% of the cells at 200 µM. […] Precursor processing evaluation performed as described by Turpin (1997) Antiviral Chem. Chemother. 8:60-69. Thus, thiolester PATEs initiate intracellular disulfide cross-linking of precursor polyproteins during late phase virus assembly and mediate a direct virucidal effect via an attack on the mature NCp7 retroviral zinc fingers in the cell-free virus.

HIV-1 NL4-3 = experiment: Virucidal (viral inactivation) assay on MAGI-CCR-5 cells; format: cell-based
Experimental: (§1) The cell-based p24 attachment assay was performed as described in Rice (1995) Science 270:1194-1197. Viral inactivation assays were carried out as described in Rice (1995) Science 270:1194-1197, and Turpin (1997) supra, with minor modifications. Briefly, MAGI-CCR-5 cells were plated (4 x 10^4 cells per well) in flat bottomed 2-cm well plates for 24 h, after which the culture media was removed and compound-treated virus was added. The virus used was obtained by transient transfection of pNL4-3 into HeLa cells yielding the replication competent NL4-3 virus. Virus containing supernatants were treated for 2 h at 37°C after which residual compound was removed by centrifugation (18,000 x g, 1h, 4°C). Virus pellets were resuspended and placed on the MAGI-CCR-5 monolayers and cultured for 48 h. Monolayers were fixed and stained with X-gal solution and blue cells counted.
NCp7 cross-linking is associated with viral inactivation. Whether the ability to crosslink the nucleocapsid protein, as determined by Western blotting, correlated with the ability to inactivate the viruses was tested in a virucidal assay. Virus stocks of HIV-1 NL4-3 were incubated with various thiolester compounds. The virus was obtained by transient transfection of a replication-competent pNL4-3 plasmid into HeLa cells. Residual thiolester was removed by centrifugation. The virus pellet was resuspended in culture media and used to infect MAGI-CCR-5 cells. At 48 hours post-infection, the cells were washed and stained with X-Gal. Compounds 44 and 45 were virucidal with I50 (concentration resulting in 50% virus inactivation) values of 12.3 µM and 13.2 µM, respectively.

HIV-1RF = experiment: XTT cytoprotection assay (antiviral activity); format: cell-based
Excerpt: One exemplary means to determine antiviral activity is with CEM-SS cells and virus (e.g., HIV-1RF) (MOI = 0.01) using the XTT (2,3-bis[2-methoxy- 4-nitro-5-sulfophenyl] -5- [(phenylamino)carbonyl]-2H-tetrazolium hydroxide) cytoprotection assay, as described by Rice (1993) PNAS 90:9721-9724, and Rice (1997) Antimicrob. Agents Chemother. 41:419-426. Briefly, cells are infected with HIV-1RF (or other virus to be tested) in the presence of various dilutions of test compounds (thiolesters and controls). The cultures are incubated for seven days. During this time control cultures without protective compounds (i.e., compounds with anti-viral activity) replicate virus, induce syncytia, and result in about 90% cell death. The cell death is measured by XTT dye reduction. XTT is a soluble tetrazolimn dye that measures mitochondrial energy output, similar to MTT. Positive controls using dextran sulfate (an attachment inhibitor) or 3'-Azido -2'-3'-dideoxythymidine, AZT (a reverse transcriptase inhibitor) are added to each assay. Individual assays are done in duplicate using a sister plate method.
Effective antiviral concentrations providing 50% cytoprotection (EC50), and cellular growth inhibitory concentrations causing 50% cytotoxicity (IC50) are calculated.

NCp7 = biological target: T1, NCp7 (Human immunodeficiency virus type 1 group M subtype B, UniProt P03347); experiment: NCp7 binding to packaging-site oligonucleotide, electrophoretic mobility shift assay; format: biochemical, HIV-1; settings: for concentration at which NCp7-oligonucleotide complex formation was inhibited: EMSA on nondenaturing polyacrylamide gels; for IC50: Table 9, read-out: Nucleic Acid Binding (I50 µM)
T1 construct: within the nucleocapsid p7 (NCp7) protein portion of the polyprotein
Experimental: Zinc finger reactivity was measured using a Zn specific fluorochrome, TSQ, N-(6-methoxy-8-quinolyl) -p-toluenesulfonamide, assay or a Trp37 zinc finger fluorescence assay. Fluorescent measurements of the Trp37 residue in the C-terminal finger of recombinant HIV-1 NCp7 protein were performed as described by Rice (1995) Science 270:1194-1197; Rice (1997) Antimicrob. Agents Chemother. 41:419-426. Measurement of Zn ejection from both fingers was measured using the Zn-selective fluorchrome probe TSQ (Molecular Probes, Eugene OR) as described by Rice (1996) J. Med. Chem 39:3606-3616. Measurement of the ability of NCp7 to bind to a DNA oligomer, a 44 mer: GGCGACTGGTGAGTACGCCAAAAATTTTGACTAGCGGAGGCTAG (SEQ ID NO:1), analogous to the HIV-1 RNA packaging site was carried out as described by Huang (1998) J. Med. Chem. 41:1371-1381, see also, Rossio (1998) HIV Pathogenesis and Treatment: Keystone Symposium on Molecular and Cellular Biology, Abstract # 4082. Briefly, 50 nM NCp7 was treated with test compounds for 1 hour at RT in […] buffer containing 10% glycerol and 50 mM Tris-HCl (pH 7.5). Labeled oligomer (0.1 picomole, end labeled [^32P]) was added in an equal volume of buffer containing 10% glycerol, 50 mM Tris-HCl (pH 7.5), 400 mM KCl and 40 mM MgCl2. The reaction was continued for 15 min at room temperature, and a total of […] (or 1/4 of the total reaction volume) was separated on nondenaturing 4.5% polyacrylamide gels in 0.5X Tris-Borate electrophoresis buffer. NCp7-oligomer complexes were visualized by autoradiography.
Interaction of zinc finger inhibitors with NCp7 can result in loss of protein structure and their ability to specifically bind oligonucleotides representing the HIV-1ψ packaging site (Huang (1998) supra; Tummino (1997) Antimicrob. Agents Chemother. 41:394-400; South (1993) Protein Sci. 2:3-19; Dannull (1994) EMBO J. 13:1525-1533). The ability of NCp7 to specifically associate with these oligonucleotides after treatment of the protein with a thiolester of the invention was tested. For example, compounds 44, 45 or 47 were very effective at inhibiting Ncp7's ability to associate with target oligonucleotide, as determined using electrophoretic mobility shift assays (EMSA) on nondenaturing polyacrylamide gels. At 1 µM, compound 45 inhibited complex formation. Compounds 44 and 47 inhibited complex formation at 100 µM (see Table 9).

virus attachment = experiment: Cell-based p24 attachment assay; settings: for IC50: Table 7, high dose test of 100 µM, read-out: Attachment I50
Experimental: as §1

[1] = Human immunodeficiency virus 1, NL43, MAGI-CCR5, read-out: Virucidal Activity (I50 µM)
[2] = Human immunodeficiency virus 1, NL43, MAGI-CCR5, read-out: virucidal I50 (concentration resulting in 50% virus inactivation)
[3] = Human immunodeficiency virus 1, Table 5, XTT cytoprotection assay, read-out: Antiviral Activity EC50
[4] = Human immunodeficiency virus 1, Table 6, XTT cytoprotection assay, read-out: Antiviral Activity EC50%

SMILES	cells killed (U1 cells; at 200 µM)	cellular toxicity (U1 cells)	IC50 (HIV-1 NL4-3; [1])	IC50 (HIV-1 NL4-3; [2])	EC50 (HIV-1RF; [3])	EC50 (HIV-1RF; [4])	concentration at which NCp7-oligonucleotide complex formation was inhibited (NCp7)	IC50 (NCp7)	inhibition of virus attachment (virus attachment)	IC50 (virus attachment)	toxicity (U1 cells)	EC50 (HIV-1RF; Human immunodeficiency virus 1, read-out: EC50 (concentration inhibiting 50% virus replication))	EC50 (HIV-1RF; Human immunodeficiency virus 1, read-out: Antiviral Activity EC50%)
CC(=O)NS(=O)(=O)c1ccc(NC(=O)c2ccccc2SC(=O)CCCCBr)cc1 [Compound 44, N-[2-(5-bromovaleroylthio)benzoyl]sulfacetamide]	60%	No cellular toxicity was evident	12.3 µM	12.3 µM	3.8 µM	38 µM	100 µM	100 µM	did not inhibit	> 100 µM	–	–	–
CC(=O)NS(=O)(=O)c1ccc(NC(=O)c2ccccc2SC(=O)CCCC[n+]2ccccc2)cc1 [Compound 45, N-[2-(5-pyridinio-valeroylthio)benzoyl]sulfacetamide bromide]	–	No cellular toxicity was evident	13.2 µM	13.2 µM	6.2 µM	6.2 µM	1 µM	1 µM	did not inhibit	> 100 µM	no toxicity	< 10 µM	–
O=C(CCCC[n+]1ccccc1)Sc1ccccc1C(=O)Nc1ccc(S(=O)(=O)c2ccc([N+](=O)[O-])cc2)cc1 [Compound 47]	–	No cellular toxicity was evident	2.1 µM	2.1 µM	–	–	100 µM	–	did not inhibit	> 100 µM	no toxicity	–	5.5 µM

Reference: EP1087941B9, “THIOLESTERS AND USES THEREOF” (THE UNITED STATES OF AMERICA, as represented by THE …, priority 1998, dated 1999)
